One assay deals with A2780 cells. Description: Cell Proliferation Assay (Cell Titer Glo), A2780. It counts as cell-based. As to conditions: Homo sapiens, read-out: CPEC50 A2780. The gist of the method: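 Cells seeded at 1000/well, allowed to adhere 3-5 h, then exposed to DMSO-dissolved compounds for 3 days at 37° C., 5% CO2. Medium replaced before Cell Titer Glo addition; luminescence read after 10 min.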
(In general: In ATP-based viability assays light output follows the ATP content of the culture.)

The next assay deals with T1, PDK1 kinase (Homo sapiens, UniProt O15530).
T1 sequence (O15530 1-556): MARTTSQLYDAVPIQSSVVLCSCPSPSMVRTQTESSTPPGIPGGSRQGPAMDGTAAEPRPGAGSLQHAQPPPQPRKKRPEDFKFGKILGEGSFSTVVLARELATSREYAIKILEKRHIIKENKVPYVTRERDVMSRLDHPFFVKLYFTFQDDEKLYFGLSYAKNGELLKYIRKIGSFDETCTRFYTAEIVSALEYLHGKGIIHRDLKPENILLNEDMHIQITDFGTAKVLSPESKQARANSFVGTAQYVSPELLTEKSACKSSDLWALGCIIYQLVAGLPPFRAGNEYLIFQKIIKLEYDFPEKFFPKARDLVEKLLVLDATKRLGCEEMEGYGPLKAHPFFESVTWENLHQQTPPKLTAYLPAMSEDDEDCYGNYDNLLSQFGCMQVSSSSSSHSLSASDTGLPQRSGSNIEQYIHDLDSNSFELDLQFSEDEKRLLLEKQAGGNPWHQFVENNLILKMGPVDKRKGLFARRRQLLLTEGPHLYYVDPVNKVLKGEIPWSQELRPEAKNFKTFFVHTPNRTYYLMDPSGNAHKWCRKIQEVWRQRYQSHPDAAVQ
Description: PDK1 Kinase Alpha Screen Assay. As to conditions: read-out: PDK1 IC50. Format: biochemical. The gist of the method:
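Biotinylated PDK1-4 peptide (50 nM) phosphorylated by PDK1 with 10 uM ATP in pH 7.5 Tris/MgCl2/DTT buffer, 2.5% DMSO, for 3-18 hours. EDTA stop, then AlphaScreen detection with phospho-(Ser/Thr) PKA substrate antibody and protein A/streptavidin beads after overnight room-temperature development.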

[1] abbreviates: 72 h, A2780 cells, 3 days incubation.
[2] abbreviates: Cell Proliferation Assay, A2780.

EC50 and IC50 data for 32 molecules are collected here from patent US7932262B2 (Novartis AG, priority 2006, dated 2011).

As a reminder, the IC50 is the concentration that gives 50% inhibition.

Like-named read-outs stand apart in the source and are kept apart here.

`Nc1ccc(-c2ccc3cnc(Nc4ccc(S(N)(=O)=O)cc4)nc3c2)cn1` [Compound 130, 4-[7-(6-Amino-pyridin-3-yl)-quinazolin-2-ylamino]-benzenesulfonamide]: in the assay on A2780 cells (setting [1]), the EC50 was below 5 µM. On PDK1 kinase, the IC50 is below 5 µM.
For the molecule `NC(=O)c1ccc(-c2ccc3cnc(Nc4ccc(S(N)(=O)=O)cc4)nc3c2)cn1` [Compound 131, 5-[2-(4-Sulfamoyl-phenylamino)-quinazolin-7-yl]-pyridine-2-carboxylic acid amide], in the assay on A2780 cells (setting [1]), the EC50 was in the range of 5 to 10 µM. In addition, at PDK1 kinase, the IC50 is below 5 µM.
For `NS(=O)(=O)c1ccc(Nc2ncc3ccc(-c4cn[nH]c4)cc3n2)cc1` [Compound 132, 4-[7-(1H-Pyrazol-4-yl)-quinazolin-2-ylamino]-benzenesulfonamide], in that order: below 5 µM and below 5 µM.
For `CN1CCN(C(=O)c2ccc3cnc(Nc4ccc(S(N)(=O)=O)cc4)nc3c2)CC1` [Compound 135, 4-[7-(4-Methyl-piperazine-1-carbonyl)-quinazolin-2-ylamino]-benzenesulfonamide], in that order: 5 to 10 µM and 10 to 25 µM.
Regarding `NS(=O)(=O)c1ccc(Nc2ncc3ccc(-c4ccc(C(=O)N5CCOCC5)cc4)cc3n2)cc1` [Compound 139, 4-{7-[4-(Morpholine-4-carbonyl)-phenyl]-quinazolin-2-ylamino}-benzenesulfonamide], the EC50 in the assay on A2780 cells (setting [1]) was 5 to 10 µM. In addition, the IC50 at PDK1 kinase is below 5 µM.
In the same order, the values of `NS(=O)(=O)c1ccc(Nc2ncc3cccc(C(=O)NC4CCCNC4)c3n2)cc1` (stereo not shown) [Compound 140, 2-(4-Sulfamoyl-phenylamino)-quinazoline-8-carboxylic acid piperidin-3-ylamide] are 5 to 10 µM and below 5 µM.
Take `CN(C)[C@@H]1CCN(C(=O)c2cccc3cnc(Nc4ccc(S(N)(=O)=O)cc4)nc23)C1` [Compound 141, 4-[8-((R)-3-Dimethylamino-pyrrolidine-1-carbonyl)-quinazolin-2-ylamino]-benzenesulfonamide]: the EC50 in the assay on A2780 cells (setting [1]) was 5 to 10 µM. The IC50 at PDK1 kinase is below 5 µM.
As to `NS(=O)(=O)c1ccc(Nc2ncc3cccc(C(=O)NC4CCNCC4)c3n2)cc1` [Compound 142, 2-(4-Sulfamoyl-phenylamino)-quinazoline-8-carboxylic acid piperidin-4-ylamide], in the assay on A2780 cells (setting [1]), the EC50 fell in the range of 5 to 10 µM. Moreover, on PDK1 kinase, the 50% inhibitory concentration (IC50) was below 5 µM.
In the case of `CN(C)[C@H]1CCN(C(=O)c2cccc3cnc(Nc4ccc(S(N)(=O)=O)cc4)nc23)C1` [Compound 143, 4-[8-((S)-3-Dimethylamino-pyrrolidine-1-carbonyl)-quinazolin-2-ylamino]-benzenesulfonamide], in the assay with A2780 cells (setting [1]), the EC50 was 5 to 10 µM. Moreover, on PDK1 kinase, the IC50 is below 5 µM.
In the case of `NS(=O)(=O)c1ccc(Nc2ncc3cccc(C(=O)N[C@H]4CN5CCC4CC5)c3n2)cc1` [Compound 144, 2-(4-Sulfamoyl-phenylamino)-quinazoline-8-carboxylic acid (R)-3-quinuclidinylamide], the EC50 in the assay with A2780 cells (setting [1]) was in the range of 5 to 10 µM. For the same molecule, the IC50 on PDK1 kinase is 5 to 10 µM.
With `CC(C)COc1cccc2cnc(Nc3ccc(S(N)(=O)=O)cc3)nc12` [Compound 310, 4-(8-isobutoxyquinazolin-2-ylamino)benzenesulfonamide], the EC50 in the assay with A2780 cells (setting [2]) was below 5 µM. For the same molecule, the IC50 on PDK1 kinase (PDK1 Kinase Alpha Screen Assay) was below 5 µM.
Regarding `CC(=O)Nc1ccc(Nc2ncc3cccc(OC(C)C)c3n2)cc1` [Compound 311, N-(4-(8-isopropoxyquinazolin-2-ylamino)phenyl)acetamide], the EC50 in the assay with A2780 cells (setting [2]) lay in the range of 5 to 10 µM. The half-maximal inhibitory concentration (IC50) on PDK1 kinase (PDK1 Kinase Alpha Screen Assay) is below 5 µM.
For `CC(=O)NS(=O)(=O)c1ccc(Nc2ncc3cccc(OC(C)C)c3n2)cc1` [Compound 312, N-(4-(8-isopropoxyquinazolin-2-ylamino)phenylsulfonyl)acetamide], in that order: 5 to 10 µM and below 5 µM.
For `CC(C)Oc1cccc2cnc(Nc3ccc(NC(=O)CN(C)C)cc3)nc12` [Compound 313, 2-(dimethylamino)-N-(4-(8-isopropoxyquinazolin-2-ylamino)phenyl)acetamide], in that order: below 5 µM and 5 to 10 µM.
As for `Nc1ccc2cnc(Nc3ccc(S(N)(=O)=O)cc3)nc2c1` [Compound 315, 4-(7-aminoquinazolin-2-ylamino]-benzenesulfonamide], in the assay on A2780 cells (setting [2]), the EC50 was below 5 µM. Further, the IC50 at PDK1 kinase (PDK1 Kinase Alpha Screen Assay) is below 5 µM.
In the case of `CC(=O)Nc1ccc2cnc(Nc3ccc(S(N)(=O)=O)cc3)nc2c1` [Compound 316, N-(2-(4-sulfamoylphenylamino)quinazolin-7-yl)acetamide], the EC50 in the assay with A2780 cells (setting [2]) is below 5 µM. For the same molecule, the IC50 on PDK1 kinase (PDK1 Kinase Alpha Screen Assay) was below 5 µM.
Consider `NS(=O)(=O)c1ccc(Nc2ncc3cccc(OCc4ccc5nnsc5c4)c3n2)cc1` [Compound 386, 4-(8-(benzo[d][1,2,3]thiadiazol-6-ylmethoxy)quinazolin-2-ylamino)benzenesulfonamide], for which, in the assay on A2780 cells (setting [2]), the EC50 was below 5 µM. For the same molecule, on PDK1 kinase (PDK1 Kinase Alpha Screen Assay), the IC50 was below 5 µM.
Regarding `NS(=O)(=O)c1ccc(Nc2ncc3cc(Br)cc(O)c3n2)cc1` [Compound 388, 4-(6-bromo-8-hydroxyquinazolin-2-ylamino)benzenesulfonamide], the EC50 in the assay on A2780 cells (setting [2]) was below 5 µM. The IC50 at PDK1 kinase (PDK1 Kinase Alpha Screen Assay) was below 5 µM.
With `NS(=O)(=O)c1ccc(Nc2ncc3cccc(OCCCn4c(=O)[nH]c5ccccc54)c3n2)cc1` [Compound 391, 4-(8-(3-(2-oxo-2,3-dihydro-1H-benzo[d]imidazol-1-yl)propoxy)quinazolin-2-ylamino)benzenesulfonamide], the EC50 in the assay on A2780 cells (setting [2]) was 5 to 10 µM. Further, on PDK1 kinase (PDK1 Kinase Alpha Screen Assay), the IC50 is below 5 µM.
For `COCCN(C)Cc1cccc2cnc(Nc3ccc(S(N)(=O)=O)cc3)nc12` [Compound 392, 4-(8-(((2-methoxyethyl)(methyl)amino)methyl)quinazolin-2-ylamino)benzenesulfonamide], in that order: below 5 µM and below 5 µM.
In the same order, the values of `COc1cccc(Oc2cccc3cnc(Nc4ccc(S(N)(=O)=O)cc4)nc23)c1` [Compound 406, 4-(8-(3-methoxyphenoxy)quinazolin-2-ylamino)benzenesulfonamide] are below 5 µM and below 5 µM.
For `COc1ccc(Oc2cccc3cnc(Nc4ccc(S(N)(=O)=O)cc4)nc23)cc1` [Compound 407, 4-(8-(4-methoxyphenoxy)quinazolin-2-ylamino)benzenesulfonamide], the EC50 in the assay on A2780 cells (setting [2]) is below 5 µM. Besides, the IC50 at PDK1 kinase (PDK1 Kinase Alpha Screen Assay) is below 5 µM.
Regarding `N#Cc1ccc(Oc2cccc3cnc(Nc4ccc(S(N)(=O)=O)cc4)nc23)cc1` [Compound 409, 4-(8-(4-cyanophenoxy)quinazolin-2-ylamino)benzenesulfonamide], in the assay with A2780 cells (setting [2]), the EC50 was in the range of 5 to 10 µM. Also, the IC50 at PDK1 kinase (PDK1 Kinase Alpha Screen Assay) was below 5 µM.
For `COc1cccc(Oc2ccc3cnc(Nc4ccc(S(N)(=O)=O)cc4)nc3c2)c1` [Compound 415, 4-(7-(3-methoxyphenoxy)quinazolin-2-ylamino)benzenesulfonamide], in that order: below 5 µM and below 5 µM.
As to `NS(=O)(=O)c1ccc(Nc2ncc3ccc(Br)c(O)c3n2)cc1` [Compound 421, 4-(7-bromo-8-hydroxyquinazolin-2-ylamino)benzenesulfonamide], the EC50 in the assay with A2780 cells (setting [2]) was below 5 µM. In addition, the IC50 on PDK1 kinase (PDK1 Kinase Alpha Screen Assay) lay in the range of 5 to 10 µM.
For `CNS(=O)(=O)Cc1ccc(Nc2ncc3cccc(OC)c3n2)cc1` [Compound 498, 1-(4-(8-methoxyquinazolin-2-ylamino)phenyl)-N-methylmethanesulfonamide], in that order: 5 to 10 µM and below 5 µM.
Take `CC(C)Oc1cccc2cnc(Nc3ccc(S(=O)(=O)N4CCN(C)CC4)cc3)nc12` [Compound 499, 8-isopropoxy-N-(4-(4-methylpiperazin-1-ylsulfonyl)phenyl)quinazolin-2-amine]: the EC50 with A2780 cells (setting [2]) fell in the range of 5 to 10 µM. Also, the 50% inhibitory concentration (IC50) at PDK1 kinase (PDK1 Kinase Alpha Screen Assay) is below 5 µM.
In the same order, the values of `CN(C)CCOc1cccc2cnc(Nc3ccc(C(N)=O)cc3)nc12` [Compound 504, 4-(8-(2-(dimethylamino)ethoxy)quinazolin-2-ylamino)benzamide] are below 5 µM and below 5 µM.
In the same order, the values of `NC(=O)c1ccc(Nc2ncc3cccc(OC4CCCC4)c3n2)cc1` [Compound 505, 4-(8-(cyclopentyloxy)quinazolin-2-ylamino)benzamide] are below 5 µM and below 5 µM.
In the same order, the values of `CC(C)Oc1cccc2cnc(Nc3ccc(C(N)=O)cc3)nc12` [Compound 506, 4-(8-isopropoxyquinazolin-2-ylamino)benzamide] are below 5 µM and below 5 µM.
Take `NCCOc1cccc2cnc(Nc3ccccc3)nc12` [Compound 507, 8-(2-aminoethoxy)-N-phenylquinazolin-2-amine]: in the assay on A2780 cells (setting [2]), the EC50 lay within 5 to 10 µM. In addition, the IC50 at PDK1 kinase (PDK1 Kinase Alpha Screen Assay) is below 5 µM.
For `CC(C)(C(N)=O)C(=O)NCCOc1cccc2cnc(Nc3ccccc3)nc12` [Compound 508, 2,2-dimethyl-N1-(2-(2-(phenylamino)quinazolin-8-yloxy)ethyl)malonamide], in that order: 5 to 10 µM and 5 to 10 µM.
